Reference: ChEMBL document CHEMBL3885881, “DrugMatrix”

Organism: Rattus norvegicus
Assay: DrugMatrix - Regimen: Daily Repeat
Type: toxicity, organism-based, Sprague-Dawley
Parameters: regimen Daily Repeat, gender Male, age 6-8 weeks
Settings: in vivo, po, route oral GAVAGE; for BASOPHIL / EOSINOPHIL / ERYTHROCYTE COUNT / HEMATOCRIT / HEMOGLOBIN / LEUKOCYTE COUNT / LYMPHOCYTE / MEAN CORPUSCULAR HEMOGLOBIN / MEAN CORPUSCULAR HEMOGLOBIN CONCENTRATION / MEAN CORPUSCULAR VOLUME / MONOCYTE / NEUTROPHIL / NUCLEATED RED BLOOD CELLS / PLATELET COUNT / ABSOLUTE BASOPHIL / ABSOLUTE EOSINOPHIL / ABSOLUTE LYMPHOCYTE / ABSOLUTE MONOCYTE / ABSOLUTE SEGMENTED NEUTROPHIL: tissue Blood; for ALANINE AMINOTRANSFERASE / ALBUMIN / ALKALINE PHOSPHATASE / ASPARTATE AMINOTRANSFERASE / BLOOD UREA NITROGEN / CARBON DIOXIDE / CHLORIDE / CHOLESTEROL / CREATINE PHOSPHOKINASE / CREATININE / GLUCOSE / LACTATE DEHYDROGENASE / LIPASE / PHOSPHORUS / POTASSIUM / SODIUM / TOTAL BILIRUBIN / TOTAL PROTEIN / URIC ACID: tissue Plasma
[1] = 300 mg/kg, 120 h, dose level M2, time 5 day, vehicle 100 % SALINE
[2] = 420 mg/kg, 72 h, dose level High, time 3 day, vehicle 100 % WATER
[3] = 420 mg/kg, 120 h, dose level High, time 5 day, vehicle 100 % WATER
[4] = […], 72 h, dose 2.5 mg/Kg, dose level Low, time 3 day, vehicle 100 % WATER
[5] = […], 120 h, dose 2.5 mg/Kg, dose level Low, time 5 day, vehicle 100 % WATER

SMILES: CCCc1nn(C)c2c(=O)[nH]c(-c3cc(S(=O)(=O)N4CCN(C)CC4)ccc3OCC)nc12
- BASOPHIL [1]: 0%
- EOSINOPHIL [1]: 0%
- ERYTHROCYTE COUNT [1]: 5.43 x10E6/uL
- HEMATOCRIT [1]: 35.43%
- HEMOGLOBIN [1]: 14 G/DL
- LEUKOCYTE COUNT [1]: 11.23 x10E3/uL
- LYMPHOCYTE [1]: 91%
- MEAN CORPUSCULAR HEMOGLOBIN [1]: 25.83 pg
- MEAN CORPUSCULAR HEMOGLOBIN CONCENTRATION [1]: 39.53 G/DL
- MEAN CORPUSCULAR VOLUME [1]: 65.33 fL
- MONOCYTE [1]: 0%
- NEUTROPHIL [1]: 9%
- NUCLEATED RED BLOOD CELLS [1]: 0.67 /100WBC
- PLATELET COUNT [1]: 1112.67 x10E3/uL
- ALANINE AMINOTRANSFERASE [1]: 45 u/L
- ALBUMIN [1]: 4.03 G/DL
- ALKALINE PHOSPHATASE [1]: 344 u/L
- ASPARTATE AMINOTRANSFERASE [1]: 70.33 u/L
- BLOOD UREA NITROGEN [1]: 14.67 mg/dL
- CARBON DIOXIDE [1]: 33 mmol/L
- CHLORIDE [1]: 100.33 MEQ/L
- CHOLESTEROL [1]: 70 mg/dL
- CREATINE PHOSPHOKINASE [1]: 212 u/L
- CREATININE [1]: 0.31 mg/dL
- GLUCOSE [1]: 137.33 mg/dL
- LACTATE DEHYDROGENASE [1]: 106 u/L
- LIPASE [1]: 11.33 u/L
- PHOSPHORUS [1]: 10.77 mg/dL
- POTASSIUM [1]: 6.45 MEQ/L
- SODIUM [1]: 146.53 MEQ/L
- TOTAL BILIRUBIN [1]: 0.2 mg/dL
- TOTAL PROTEIN [1]: 5.43 G/DL
- URIC ACID [1]: 0.73 mg/dL
- ABSOLUTE BASOPHIL [2]: 0 CELLS/uL
- ABSOLUTE EOSINOPHIL [2]: 0 CELLS/uL
- ABSOLUTE LYMPHOCYTE [2]: 12448.33 CELLS/uL
- ABSOLUTE MONOCYTE [2]: 74 CELLS/uL
- ABSOLUTE SEGMENTED NEUTROPHIL [2]: 877.67 CELLS/uL
- BASOPHIL [2]: 0%
- EOSINOPHIL [2]: 0%
- ERYTHROCYTE COUNT [2]: 5.64 x10E6/uL
- HEMATOCRIT [2]: 35.27%
- HEMOGLOBIN [2]: 13.43 G/DL
- LEUKOCYTE COUNT [2]: 13.4 x10E3/uL
- LYMPHOCYTE [2]: 92.33%
- MEAN CORPUSCULAR HEMOGLOBIN [2]: 23.8 pg
- MEAN CORPUSCULAR HEMOGLOBIN CONCENTRATION [2]: 38.1 G/DL
- MEAN CORPUSCULAR VOLUME [2]: 62.57 fL
- MONOCYTE [2]: 0.67%
- NEUTROPHIL [2]: 7%
- NUCLEATED RED BLOOD CELLS [2]: 0 /100WBC
- PLATELET COUNT [2]: 944.33 x10E3/uL
- ALANINE AMINOTRANSFERASE [2]: 41.67 u/L
- ALBUMIN [2]: 3.77 G/DL
- ALKALINE PHOSPHATASE [2]: 304 u/L
- ASPARTATE AMINOTRANSFERASE [2]: 72.67 u/L
- BLOOD UREA NITROGEN [2]: 16.33 mg/dL
- CARBON DIOXIDE [2]: 30.33 mmol/L
- CHLORIDE [2]: 102.33 MEQ/L
- CHOLESTEROL [2]: 79.67 mg/dL
- CREATINE PHOSPHOKINASE [2]: 170 u/L
- CREATININE [2]: 0.14 mg/dL
- GLUCOSE [2]: 148 mg/dL
- LACTATE DEHYDROGENASE [2]: 130.33 u/L
- LIPASE [2]: 9.67 u/L
- PHOSPHORUS [2]: 8.4 mg/dL
- POTASSIUM [2]: 5.71 MEQ/L
- SODIUM [2]: 146.4 MEQ/L
- TOTAL BILIRUBIN [2]: 0.23 mg/dL
- TOTAL PROTEIN [2]: 5.6 G/DL
- URIC ACID [2]: 0.5 mg/dL
- ABSOLUTE BASOPHIL [3]: 0 CELLS/uL
- ABSOLUTE EOSINOPHIL [3]: 0 CELLS/uL
- ABSOLUTE LYMPHOCYTE [3]: 8874.67 CELLS/uL
- ABSOLUTE MONOCYTE [3]: 36 CELLS/uL
- ABSOLUTE SEGMENTED NEUTROPHIL [3]: 756 CELLS/uL
- BASOPHIL [3]: 0%
- EOSINOPHIL [3]: 0%
- ERYTHROCYTE COUNT [3]: 5.05 x10E6/uL
- HEMATOCRIT [3]: 32.73%
- HEMOGLOBIN [3]: 12.9 G/DL
- LEUKOCYTE COUNT [3]: 9.67 x10E3/uL
- LYMPHOCYTE [3]: 91.67%
- MEAN CORPUSCULAR HEMOGLOBIN [3]: 25.53 pg
- MEAN CORPUSCULAR HEMOGLOBIN CONCENTRATION [3]: 39.4 G/DL
- MEAN CORPUSCULAR VOLUME [3]: 64.8 fL
- MONOCYTE [3]: 0.33%
- NEUTROPHIL [3]: 8%
- NUCLEATED RED BLOOD CELLS [3]: 0 /100WBC
- PLATELET COUNT [3]: 1090.67 x10E3/uL
- ALANINE AMINOTRANSFERASE [3]: 33.67 u/L
- ALBUMIN [3]: 3.67 G/DL
- ALKALINE PHOSPHATASE [3]: 232 u/L
- ASPARTATE AMINOTRANSFERASE [3]: 57 u/L
- BLOOD UREA NITROGEN [3]: 15.67 mg/dL
- CARBON DIOXIDE [3]: 33.67 mmol/L
- CHLORIDE [3]: 99 MEQ/L
- CHOLESTEROL [3]: 77.67 mg/dL
- CREATINE PHOSPHOKINASE [3]: 155 u/L
- CREATININE [3]: 0.11 mg/dL
- GLUCOSE [3]: 144.67 mg/dL
- LACTATE DEHYDROGENASE [3]: 100 u/L
- LIPASE [3]: 10 u/L
- PHOSPHORUS [3]: 10.2 mg/dL
- POTASSIUM [3]: 5.99 MEQ/L
- SODIUM [3]: 146.03 MEQ/L
- TOTAL BILIRUBIN [3]: 0.17 mg/dL
- TOTAL PROTEIN [3]: 5.83 G/DL
- URIC ACID [3]: 0.63 mg/dL
- ABSOLUTE BASOPHIL [4]: 0 CELLS/uL
- ABSOLUTE EOSINOPHIL [4]: 0 CELLS/uL
- ABSOLUTE LYMPHOCYTE [4]: 7128 CELLS/uL
- ABSOLUTE MONOCYTE [4]: 81 CELLS/uL
- ABSOLUTE SEGMENTED NEUTROPHIL [4]: 891 CELLS/uL
- BASOPHIL [4]: 0%
- EOSINOPHIL [4]: 0%
- ERYTHROCYTE COUNT [4]: 5.44 x10E6/uL
- HEMATOCRIT [4]: 34.27%
- HEMOGLOBIN [4]: 13.2 G/DL
- LEUKOCYTE COUNT [4]: 8.1 x10E3/uL
- LYMPHOCYTE [4]: 88%
- MEAN CORPUSCULAR HEMOGLOBIN [4]: 24.4 pg
- MEAN CORPUSCULAR HEMOGLOBIN CONCENTRATION [4]: 38.53 G/DL
- MEAN CORPUSCULAR VOLUME [4]: 63.23 fL
- MONOCYTE [4]: 1%
- NEUTROPHIL [4]: 11%
- NUCLEATED RED BLOOD CELLS [4]: 0.33 /100WBC
- PLATELET COUNT [4]: 1027 x10E3/uL
- ALANINE AMINOTRANSFERASE [4]: 61 u/L
- ALBUMIN [4]: 4.03 G/DL
- ALKALINE PHOSPHATASE [4]: 377.33 u/L
- ASPARTATE AMINOTRANSFERASE [4]: 87.33 u/L
- BLOOD UREA NITROGEN [4]: 16 mg/dL
- CARBON DIOXIDE [4]: 29.33 mmol/L
- CHLORIDE [4]: 101.67 MEQ/L
- CHOLESTEROL [4]: 61 mg/dL
- CREATINE PHOSPHOKINASE [4]: 188.67 u/L
- CREATININE [4]: 0.1 mg/dL
- GLUCOSE [4]: 163 mg/dL
- LACTATE DEHYDROGENASE [4]: 107.67 u/L
- LIPASE [4]: 8.33 u/L
- PHOSPHORUS [4]: 9.57 mg/dL
- POTASSIUM [4]: 5.88 MEQ/L
- SODIUM [4]: 147.5 MEQ/L
- TOTAL BILIRUBIN [4]: 0.17 mg/dL
- TOTAL PROTEIN [4]: 5.97 G/DL
- URIC ACID [4]: 0.63 mg/dL
- ABSOLUTE BASOPHIL [5]: 0 CELLS/uL
- ABSOLUTE EOSINOPHIL [5]: 0 CELLS/uL
- ABSOLUTE LYMPHOCYTE [5]: 7975.33 CELLS/uL
- ABSOLUTE MONOCYTE [5]: 0 CELLS/uL
- ABSOLUTE SEGMENTED NEUTROPHIL [5]: 658 CELLS/uL
- BASOPHIL [5]: 0%
- EOSINOPHIL [5]: 0%
- ERYTHROCYTE COUNT [5]: 5.39 x10E6/uL
- HEMATOCRIT [5]: 34.73%
- HEMOGLOBIN [5]: 14 G/DL
- LEUKOCYTE COUNT [5]: 8.63 x10E3/uL
- LYMPHOCYTE [5]: 92%
- MEAN CORPUSCULAR HEMOGLOBIN [5]: 26 pg
- MEAN CORPUSCULAR HEMOGLOBIN CONCENTRATION [5]: 40.3 G/DL
- MEAN CORPUSCULAR VOLUME [5]: 64.5 fL
- MONOCYTE [5]: 0%
- NEUTROPHIL [5]: 8%
- NUCLEATED RED BLOOD CELLS [5]: 0.33 /100WBC
- PLATELET COUNT [5]: 629.67 x10E3/uL
- ALANINE AMINOTRANSFERASE [5]: 49.67 u/L
- ALBUMIN [5]: 4.27 G/DL
- ALKALINE PHOSPHATASE [5]: 363.67 u/L
- ASPARTATE AMINOTRANSFERASE [5]: 76 u/L
- BLOOD UREA NITROGEN [5]: 14.33 mg/dL
- CARBON DIOXIDE [5]: 32 mmol/L
- CHLORIDE [5]: 98.67 MEQ/L
- CHOLESTEROL [5]: 77 mg/dL
- CREATINE PHOSPHOKINASE [5]: 203.33 u/L
- CREATININE [5]: 0.13 mg/dL
- GLUCOSE [5]: 145.33 mg/dL
- LACTATE DEHYDROGENASE [5]: 120 u/L
- LIPASE [5]: 9.33 u/L
- PHOSPHORUS [5]: 11.67 mg/dL
- POTASSIUM [5]: 6.39 MEQ/L
- SODIUM [5]: 144.5 MEQ/L
- TOTAL BILIRUBIN [5]: 0.2 mg/dL
- TOTAL PROTEIN [5]: 6.3 G/DL
- URIC ACID [5]: 0.87 mg/dL
